In patent publication US20240109863A1, “2-PYRIDONE DERIVATIVE, AND PREPARATION METHOD THEREFOR AND PHARMACEUTICAL APPLICATION THEREOF” (KPC PHARMACEUTICALS, INC, priority 2020, published 2024):

What was measured:
[1] = In vitro liver microsome stability assay; format: in vitro ADME; settings: liver microsomes, pH 7.4; human, 0.2 mg/mL liver microsomal protein, 1 μM test substance, 37° C.; read-out: Liver microsome stability (species: human): T½
Method: The test substance and the positive control substance verapamil were respectively dissolved with DMSO to 10 mM as a stock solution. The above 10 mM stock solution was diluted with 70% acetonitrile aqueous solution to a concentration of 0.25 mM.
An NADPH regeneration system finally containing concentrations of 6.5 mM NADP, 16.5 mM G-6-P, 3 U/mL G-6-PDH, and 3.3 mM MgCl was prepared.
Stopping solution was an acetonitrile solution containing tolbutamide and propranolol (both internal standards).
Phosphate buffer was a 100 mM K3PO4 (pH=7.4) buffer containing 3.3 mM MgCl2.
Liver microsomal incubation system was a 100 mM phosphate buffer containing 0.2 mg/mL liver microsomal protein and 1 μM test substance/positive control.
80 μL of the mixed solution from the incubation system was taken. 400 μL of the stopping solution was added to precipitate protein. The mixture was vortexed and added with 20 μL of NADPH regeneration system as the sample at 0 min.
130 μL of NADPH regeneration system was added to the remaining 520 μL of protein-drug mixed solution. The mixture was mixed well, and incubated. The final incubation system was 650 μL, containing 0.2 mg/mL liver microsomal protein, 1 μM test substance/positive control, 1.3 mM NADP, 3.3 mM G-6-P, and 0.6 U/mL G-6-PDH.
The mixed system was slowly shaken and incubated in a water bath at 37° C. 100 μL of the incubation solution was taken at 5, 10, 30, and 60 min, respectively, and added into a new 96-well plate with 400 μL of stopping solution in each well. The mixture in each well was mixed well, and the protein was precipitated by centrifuging at 4000×g for 15 minutes at 4° C.
100 μL of the supernatant was taken, and diluted with water at a ratio of 1:2. The samples were analyzed by LC-MS/MS.

[2] = target: T1, THRα (Homo sapiens, UniProt P10827); experiment: THRα binding assay (as the THRβ assay, THRβ replaced with THRα); format: biochemical; settings: for EC50: THRα in place of THRβ; for THRα/β selectivity (fold): ratio of THRα EC50 to THRβ EC50
T1 construct: GST
T1 sequence (P10827 1-410 isoform P10827-2, other chains not shown): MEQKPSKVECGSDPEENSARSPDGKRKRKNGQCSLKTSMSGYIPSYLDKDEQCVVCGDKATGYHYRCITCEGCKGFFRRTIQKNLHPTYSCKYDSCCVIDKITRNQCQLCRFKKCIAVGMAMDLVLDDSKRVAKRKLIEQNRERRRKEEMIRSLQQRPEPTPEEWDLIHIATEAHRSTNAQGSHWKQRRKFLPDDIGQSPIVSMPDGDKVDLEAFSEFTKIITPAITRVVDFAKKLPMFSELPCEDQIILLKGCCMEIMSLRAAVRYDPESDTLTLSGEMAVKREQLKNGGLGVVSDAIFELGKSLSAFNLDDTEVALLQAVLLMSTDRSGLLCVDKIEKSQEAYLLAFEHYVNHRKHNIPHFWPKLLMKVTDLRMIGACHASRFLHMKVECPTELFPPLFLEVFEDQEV
T1 sequence (P19793 whole entry partner, other chains not shown): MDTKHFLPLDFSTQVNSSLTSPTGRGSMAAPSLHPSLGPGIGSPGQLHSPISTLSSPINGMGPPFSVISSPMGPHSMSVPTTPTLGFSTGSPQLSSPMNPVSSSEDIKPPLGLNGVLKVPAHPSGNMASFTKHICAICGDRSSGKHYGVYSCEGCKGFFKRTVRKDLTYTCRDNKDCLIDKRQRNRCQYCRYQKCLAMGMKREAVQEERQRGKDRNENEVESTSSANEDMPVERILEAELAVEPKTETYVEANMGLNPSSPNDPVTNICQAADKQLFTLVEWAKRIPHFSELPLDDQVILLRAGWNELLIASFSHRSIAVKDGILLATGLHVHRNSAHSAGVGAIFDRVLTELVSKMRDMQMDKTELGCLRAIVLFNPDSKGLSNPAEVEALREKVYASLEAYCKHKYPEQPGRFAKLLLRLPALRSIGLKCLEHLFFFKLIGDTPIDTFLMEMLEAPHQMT

[3] = target: T2, THRβ (Homo sapiens, UniProt P10828); experiment: THRβ binding assay (time-resolved FRET coactivator peptide recruitment); format: biochemical; settings: THRβ-LBD/RXRα, SRC2-2 coactivator peptide recruitment, 4 hours at room temperature
T2 construct: RXRα and THRβ-LBD Eu-anti-GST antibody with GST tag
T2 sequence (P10828 217-461 limits assumed, other chains not shown): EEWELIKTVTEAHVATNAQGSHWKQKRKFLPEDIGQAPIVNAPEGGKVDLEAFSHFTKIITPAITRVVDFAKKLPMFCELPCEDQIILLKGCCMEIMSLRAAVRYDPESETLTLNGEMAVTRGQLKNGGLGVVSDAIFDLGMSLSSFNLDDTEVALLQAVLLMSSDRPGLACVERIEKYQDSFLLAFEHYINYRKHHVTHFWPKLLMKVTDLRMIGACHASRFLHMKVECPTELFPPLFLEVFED
T2 sequence (P19793 whole entry partner, other chains not shown, the tested form may be a part): as the sequence (P19793 whole entry partner, other chains not shown) above
Method: Experimental methods: In vitro analysis of the agonistic effect of compounds on THRβ was performed using time-resolved fluorescence resonance energy transfer coactivator peptide recruitment assays. The assay used biotin-SRC2-2 coactivator peptide, streptavidin-d2, RXRα and THRβ-LBD Eu-anti-GST antibody with GST tag. Eu-anti-GST antibody indirectly labeled THRβ-LBD by binding to the GST tag. Streptavidin-d2 indirectly labeled the SRC2-2 coactivator peptide by binding to the biotin tag. In the presence of RXRα, THRβ-LBD can form heterodimer THRβ-LBD/RXRα with it. […] According to the effect of different concentrations of the compound on the activity of THRβ, the agonistic ability of the compound can be evaluated.
The detailed procedure is as follows: • a. 100× reference compound or compound was prepared with DMSO, and equally diluted by 1:3. • b. 100× gradiently diluted reference compound or compound was diluted with 1× reaction buffer to 4×, which was then added to an assay plate. • c. A mixed solution of 4× THRβ-LBD and 4× RXRα was prepared with 1× reaction buffer, and added to the assay plate. • d. A mixed solution of 2× biotin-SRC2-2, 2× Eu-anti-GST, and 2× streptavidin-d2 was prepared with 1× reaction buffer, and added to the assay plate. • e. The assay plate was centrifuged at 1000 rpm for 1 min, and incubated at room temperature in the dark for 4 hours. • f.

Structure (SMILES)	half-life at 1 μM [1] [min]	EC50 [2] [nM]	THRα/β selectivity (fold) [2] [fold]	EC50 [3] [nM]
N#Cc1nn(-c2cc(Cl)c(Oc3ccc(=O)n(C4CCC4)c3)c(Cl)c2)c(=O)[nH]c1=O [Example 3, 2-(3,5-dichloro-4-[(1-cyclobutyl-6-oxo-1,6-dihydropyridin-3-yl)oxy]phenyl)-3,5-dioxo-2,3,4,5-tetrahydro-1,2,4-triazine-6-carbonitrile]	62.8	290	12.6	23
N#Cc1nn(-c2cc(Cl)c(Oc3ccc(=O)n(C4CCCC4=O)c3)c(Cl)c2)c(=O)[nH]c1=O (stereo not shown) [Example 4, 2-(3,5-dichloro-4-((6-oxo-1-(2-oxocyclopentyl)-1,6-dihydropyridin-3-yl)oxy)phenyl)-3,5-dioxo-2,3,4,5-tetrahydro-1,2,4-triazine-6-carbonitrile]	110	–	–	561
N#Cc1nn(-c2cc(Cl)c(Oc3ccc(=O)n(CC4CCCC4)c3)c(Cl)c2)c(=O)[nH]c1=O [Example 5, 2-(3,5-Dichloro-4-((1-(cyclopentylmethyl)-6-oxo-1,6-dihydropyridin-3-yl)oxy)phenyl) -3,5-dioxo-2,3,4,5-tetrahydro-1,2,4-triazine-6-carbonitrile]	2.1	–	–	20
N#Cc1nn(-c2cc(Cl)c(Oc3ccc(=O)n(C4CCCCC4)c3)c(Cl)c2)c(=O)[nH]c1=O [Example 9, 2-(3,5-Dichloro-4-((1-cyclohexyl-6-oxo-1,6-dihydropyridin-3-yl)oxy)phenyl)-3,5-dioxo-2,3,4,5-tetrahydro-1,2,4-triazine-6-carbonitrile]	7	–	–	12
N#Cc1nn(-c2cc(Cl)c(Oc3ccc(=O)n(C4CC4)c3)c(Cl)c2)c(=O)[nH]c1=O [Example 10, 2-(3,5-Dichloro-4-((1-cyclopropyl-6-oxo-1,6-dihydropyridin-3-yl)oxy)phenyl)-3,5-diox o-2,3,4,5-tetrahydro-1,2,4-triazine-6-carbonitrile]	> 120	–	–	107
N#Cc1nn(-c2cc(Cl)c(Oc3ccc(=O)n(C4=CCCC4)c3)c(Cl)c2)c(=O)[nH]c1=O [Example 11, 2-(3,5-Dichloro-4-((1-(cyclopentyl-1-en-1-yl)-6-oxo-1,6-dihydropyridin-3-yl)oxy)phenyl)-3,5-dioxo-2,3,4,5-tetrahydro-1,2,4-triazine-6-carbonitrile]	41.6	236	13.9	17
N#Cc1nn(-c2cc(Cl)c(Oc3ccc(=O)n(C4CCCC4)c3)c(Cl)c2)c(=O)[nH]c1=O [Example 12]	4.4	–	–	18
[2H]C1(n2cc(Oc3c(Cl)cc(-n4nc(C#N)c(=O)[nH]c4=O)cc3Cl)ccc2=O)CCCC1 [Example 14]	4.6	600	20.0	30

Other lines, results leading:

half-life at 1 μM [1] [min]	EC50 [2] [nM]	THRα/β selectivity (fold) [2] [fold]	EC50 [3] [nM]	Structure (SMILES)
11.5	–	–	793	N#Cc1nn(-c2cc(Cl)c(Oc3cc(Cl)c(=O)n(C4CCCC4)c3)c(Cl)c2)c(=O)[nH]c1=O [Example 15, 2-(3,5-Dichloro-4-[(5-chloro-1-cyclopentyl-6-oxo-1,6-dihydropyridin-3-yl)oxy]phenyl) -3,5-dioxo-2,3,4,5-tetrahydro-1,2,4-triazine-6-carbonitrile]
5.1	–	–	370	N#Cc1nn(-c2cc(Cl)c(Oc3cc(F)c(=O)n(C4CCCC4)c3)c(Cl)c2)c(=O)[nH]c1=O [Example 16, 2-(3,5-Dichloro-4-((1-cyclopentyl-5-fluoro-6-oxo-1,6-dihydropyridin-3-yl)oxy)phenyl) -3,5-dioxo-2,3,4,5-tetrahydro-1,2,4-triazine-6-carbonitrile]
3.2	–	–	450	Cc1cc(Oc2c(Cl)cc(-n3nc(C#N)c(=O)[nH]c3=O)cc2Cl)cn(C2CCCC2)c1=O [Example 17, 2-(3,5-Dichloro-4-[(1-cyclopentyl-5-methyl-6-oxo-1,6-dihydropyridin-3-yl)oxy]phenyl) -3,5-dioxo-2,3,4,5-tetrahydro-1,2,4-triazine-6-carbonitrile]
> 120	4180	47.5	88	N#Cc1nn(-c2cc(Cl)c(Oc3ccc(=O)n(-c4ccccc4)c3)c(Cl)c2)c(=O)[nH]c1=O [Example 20, 2-(3,5-dichloro-4-((6-oxo-1-phenyl-1,6-dihydropyridin-3-yl)oxy)phenyl)-3,5-dioxo-2,3,4,5-tetrahydro-1,2,4-triazine-6-carbonitrile]
> 120	669	33.5	20	N#Cc1nn(-c2cc(Cl)c(Oc3ccc(=O)n(-c4cccc(F)c4)c3)c(Cl)c2)c(=O)[nH]c1=O [Example 22, 2-(3,5-Dichloro-4-((1-(3-fluorophenyl)-6-oxo-1,6-dihydropyridin-3-yl)oxy)phenyl)-3,5-dioxo-2,3,4,5-tetrahydro-1,2,4-triazine-6-carbonitrile]
> 120	220	36.7	6	O=c1[nH]c(=O)n(-c2cc(Cl)c(Oc3ccc(=O)n(-c4ccccc4)c3)c(Cl)c2)nc1CF [Example 35, 2-(3,5-dichloro-4-((6-oxo-1-phenyl-1,6-dihydropyridin-3-yl)oxy)phenyl)-6-(fluoromethyl)-1,2,4-triazine-3,5(2H, 4H)-dione]
–	117	23.3	5	O=c1[nH]c(=O)n(-c2cc(Cl)c(Oc3ccc(=O)n(-c4cccc(C(F)(F)F)c4)c3)c(Cl)c2)nc1CF [Example 39, 2-(3,5-Dichloro-4-((6-oxo-1-(3-(trifluoromethyl)phenyl)-1,6-dihydropyridin-3-yl)oxy)phenyl)-6-(fluoromethyl)-1,2,4-triazine-3,5(2H, 4H)-dione]
–	95	23.7	4	O=c1[nH]c(=O)n(-c2cc(Cl)c(Oc3ccc(=O)n(-c4cccc(OC(F)(F)F)c4)c3)c(Cl)c2)nc1CF [Example 40, 2-(3,5-Dichloro-4-((6-oxo-1-(3-(trifluoromethoxy)phenyl)-1,6-dihydropyridin-3-yl)oxy)phenyl)-6-(fluoromethyl)-1,2,4-triazine-3,5(2H, 4H)-dione]
–	7630	53.7	117	Cc1ccc(-n2cc(Oc3c(Cl)cc(-n4nc(CF)c(=O)[nH]c4=O)cc3Cl)ccc2=O)cc1 [Example 41, 2-(3,5-dichloro-4-((6-oxo-1-(p-tolyl)-1,6-dihydropyridin-3-yl)oxy)phenyl)-6-(fluoromethyl)-1,2,4-triazine-3,5(2H, 4H)-dione]
–	696	72.5	9	Cc1cc(C)cc(-n2cc(Oc3c(Cl)cc(-n4nc(CF)c(=O)[nH]c4=O)cc3Cl)ccc2=O)c1 [Example 42, 2-(3,5-Dichloro-4-((1-(3,5-dimethylphenyl)-6-oxo-1,6-dihydropyridin-3-yl)oxy)phenyl) -6-(fluoromethyl)-1,2,4-triazine-3,5(2H, 4H)-dione]
